Data taken from patent US20180000085A1, “USE OF PICOLINAMIDE COMPOUNDS WITH FUNGICIDAL ACTIVITY” (DOW AGROSCIENCES LLC, priority 2014, published 2018).

What was measured:
[1] = system: Zymoseptoria tritici; assay: Leaf blotch of wheat (SEPTTR) disease control on wheat seedlings; format: in vivo; design: key to SEPTTR 1DP, HV activity at 100 ppm (% control rating) / SEPTTR 3DC, HV activity at 100 ppm (% control rating) / SEPTTR disease control, 1DP / SEPTTR disease control, 3DC / SEPTTR 1DP disease control rating, HV activity / SEPTTR 3DC disease control rating, HV activity / SEPTTR 3DC, LV activity at 125.1 g/H (% Control rating) / SEPTTR 1DP, LV activity at 125.1 g/H (% Control rating) / SEPTTR 1DP disease control rating, LV activity at 125.1 g/H / SEPTTR 3DC disease control rating, LV activity at 125.1 g/H / SEPTTR 3DC disease control rating, HV activity at 100 ppm / SEPTTR 1DP disease control rating, HV activity at 100 ppm / HV activity at 100 ppm SEPTTR 3DC (disease control rating) / HV activity at 100 ppm SEPTTR 1DP (disease control rating) / LV activity at 125.1 g/H SEPTTR 1DP (disease control rating) / LV activity at 125.1 g/H SEPTTR 3DC (disease control rating): A: > 80; B: ≤ 80; C: Not Tested; D: No Activity Observed in the Reported Assay; details: for SEPTTR 1DP, LV activity at 125.1 g/H (% Control rating) / SEPTTR 3DC, LV activity at 125.1 g/H (% Control rating) / SEPTTR 1DP disease control rating, LV activity at 125.1 g/H / SEPTTR 3DC disease control rating, LV activity at 125.1 g/H: low volume application; for SEPTTR 1DP disease control rating, HV activity / SEPTTR 3DC disease control rating, HV activity: HV application at 100 ppm
Procedure: (§1) All fungicides were evaluated using the aforementioned method for their activity vs. all target diseases, unless stated otherwise. Wheat leaf blotch and brown rust activity were also evaluated using track spray applications, in which case the fungicides were formulated as EC formulations, containing 0.1% Trycol 5941 in the spray solutions. Wheat plants (variety Yuma) were grown from seed in a greenhouse in 50% mineral soil/50% soil-less Metro mix until the first leaf was fully emerged, with 7-10 seedlings per pot. These plants were inoculated with an aqueous spore suspension of Zymoseptoria tritici either prior to or after fungicide treatments. After inoculation the plants were kept in 100% relative humidity (one day in a dark dew chamber followed by two to three days in a lighted dew chamber at 20° C.) to permit spores to germinate and infect the leaf. The plants were then transferred to a greenhouse set at 20° C. for disease to develop. When disease symptoms were fully expressed on the 1st leaves of untreated plants, infection levels were assessed on a scale of 0 to 100 percent disease severity. Percent disease control was calculated using the ratio of disease severity on treated plants relative to untreated plants.

[2] = system: Puccinia triticina; assay: Wheat brown rust (PUCCRT) disease control on wheat seedlings; format: in vivo; design: key to PUCCRT 3DC, HV activity at 100 ppm (% control rating) / PUCCRT disease control, 3DC / PUCCRT 1DP disease control rating, HV activity / PUCCRT 3DC disease control rating, HV activity / PUCCRT 3DC, LV activity at 125.1 g/H (% Control rating) / PUCCRT 1DP, LV activity at 125.1 g/H (% Control rating) / PUCCRT 3DC disease control rating, LV activity at 125.1 g/H / PUCCRT 1DP disease control rating, LV activity at 125.1 g/H / PUCCRT 3DC disease control rating, HV activity at 100 ppm / PUCCRT 1DP disease control rating, HV activity at 100 ppm / HV activity at 100 ppm PUCCRT 3DC (disease control rating) / LV activity at 125.1 g/H PUCCRT 1DP (disease control rating) / LV activity at 125.1 g/H PUCCRT 3DC (disease control rating): A: > 80; B: ≤ 80; C: Not Tested; D: No Activity Observed in the Reported Assay; details: for PUCCRT 1DP, LV activity at 125.1 g/H (% Control rating) / PUCCRT 3DC, LV activity at 125.1 g/H (% Control rating) / PUCCRT 1DP disease control rating, LV activity at 125.1 g/H / PUCCRT 3DC disease control rating, LV activity at 125.1 g/H: low volume application; for PUCCRT 1DP disease control rating, HV activity / PUCCRT 3DC disease control rating, HV activity: HV application at 100 ppm
Procedure: as §1, with “plants. Example B: Evaluation of Fungicidal Activity: Wheat Brown Rust (Puccinia triticina; Synonym: Puccinia recondita f. sp. Tritici; Bayer Code PUCCRT) Wheat plants (variety Yuma) were grown from seed in a greenhouse in 50% mineral soil/50% soil-less Metro mix until the first leaf was fully emerged, with 7-10 seedlings per pot. These plants were inoculated with an aqueous spore suspension of Puccinia triticina either prior to or after fungicide treatments. […] The plants were then transferred to a greenhouse set at 24° C. for disease to develop. Fungicide formulation, application and disease assessment followed the procedures as described in the Example A.” for “plants.”

[3] = high volume application, 100 ppm, 1 day protectant
[4] = high volume application, 100 ppm, 3 day curative
[5] = 1 Day Protectant, wheat leaf blotch
[6] = 3 Day Curative, wheat leaf blotch
[7] = 1 Day Protectant, wheat brown rust
[8] = 3 Day Curative, wheat brown rust

CCC(CC)[C@@H](Oc1ccc(Cl)cc1Cl)[C@H](C)OC(=O)[C@H](C)NC(=O)c1nccc(OC)c1OCOC(C)=O [Cmpd 590]
SEPTTR 1DP, LV activity at 125.1 g/H (% Control rating) ([1]; 1 Day Protectant): B (≤ 80)
SEPTTR 3DC, LV activity at 125.1 g/H (% Control rating) ([1]; 3 Day Curative): B (≤ 80)
PUCCRT 1DP, LV activity at 125.1 g/H (% Control rating) ([2]; 1 Day Protectant): A (> 80)
PUCCRT 3DC, LV activity at 125.1 g/H (% Control rating) ([2]; 3 Day Curative): B (≤ 80)

COc1ccnc(C(=O)N[C@@H](C)C(=O)O[C@@H](C)[C@H](OCC2CC2)C2CCCCC2)c1O [Cmpd 816]
SEPTTR 1DP disease control rating, HV activity at 100 ppm [1, 3]: B (≤ 80)
SEPTTR 3DC disease control rating, HV activity at 100 ppm [1, 4]: B (≤ 80)
PUCCRT 1DP disease control rating, HV activity at 100 ppm [2, 3]: A (> 80)
PUCCRT 3DC disease control rating, HV activity at 100 ppm [2, 4]: B (≤ 80)

COc1ccnc(C(=O)N[C@@H](C)C(=O)O[C@@H](C)[C@@H](Cc2ccccc2)Oc2ccccc2)c1O [Cmpd 345]
SEPTTR 1DP disease control rating, HV activity [1, 5]: D
SEPTTR 3DC disease control rating, HV activity [1, 6]: B (≤ 80)
PUCCRT 1DP disease control rating, HV activity [2, 7]: A (> 80)
PUCCRT 3DC disease control rating, HV activity [2, 8]: A (> 80)

CC(C)C[C@@H](Oc1cccc(Cl)c1)[C@H](C)OC(=O)[C@H](C)NC(=O)c1ncccc1O [Cmpd 1037]
HV activity at 100 ppm SEPTTR 1DP (disease control rating) ([1]; HV application, 100 ppm, 1 Day Protectant, wheat leaf blotch): A (> 80)
HV activity at 100 ppm SEPTTR 3DC (disease control rating) ([1]; HV application, 100 ppm, 3 Day Curative, wheat leaf blotch): B (≤ 80)
HV activity at 100 ppm PUCCRT 1DP (disease control rating) ([2]; HV application, 100 ppm, 1 Day Protectant, wheat brown rust): A (> 80)
HV activity at 100 ppm PUCCRT 3DC (disease control rating) ([2]; HV application, 100 ppm, 3 Day Curative, wheat brown rust): A (> 80)

CCC(CC)C(Oc1ccc(Cl)cc1Cl)C(C)OC(=O)C(C)NC(=O)c1nccc(OC)c1O (centres unmarked) [Cmpd 381]
SEPTTR 1DP disease control rating, HV activity [1, 5]: D
SEPTTR 3DC disease control rating, HV activity [1, 6]: D
PUCCRT 1DP disease control rating, HV activity [2, 7]: D
PUCCRT 3DC disease control rating, HV activity [2, 8]: D

COCC[C@H](Cc1ccc(F)cc1)[C@@H](OC(=O)C(C)C)[C@H](C)OC(=O)[C@H](C)NC(=O)c1nccc(OC)c1OCOC(C)=O [Cmpd 499]
SEPTTR 1DP, LV activity at 125.1 g/H (% Control rating) ([1]; 1 Day Protectant): D
SEPTTR 3DC, LV activity at 125.1 g/H (% Control rating) ([1]; 3 Day Curative): B (≤ 80)
PUCCRT 1DP, LV activity at 125.1 g/H (% Control rating) ([2]; 1 Day Protectant): A (> 80)
PUCCRT 3DC, LV activity at 125.1 g/H (% Control rating) ([2]; 3 Day Curative): A (> 80)

CCC(CC)C(Oc1ccc(Cl)cc1Cl)C(C)OC(=O)C(C)NC(=O)c1nccc(OC)c1OC(C)=O (centres unmarked) [Cmpd 675]
SEPTTR 1DP disease control rating, LV activity at 125.1 g/H ([1]; 1 day protectant): A (> 80)
SEPTTR 3DC disease control rating, LV activity at 125.1 g/H ([1]; 3 day curative): A (> 80)
PUCCRT 1DP disease control rating, LV activity at 125.1 g/H ([2]; 1 day protectant): A (> 80)
PUCCRT 3DC disease control rating, LV activity at 125.1 g/H ([2]; 3 day curative): B (≤ 80)

CCC(CC)C(Oc1cc(F)ccc1F)C(C)OC(=O)C(CC(C)C)NC(=O)c1nccc(OC)c1OCOC(C)=O (centres unmarked) [Cmpd 682]
SEPTTR 1DP disease control rating, LV activity at 125.1 g/H ([1]; 1 day protectant): B (≤ 80)
SEPTTR 3DC disease control rating, LV activity at 125.1 g/H ([1]; 3 day curative): B (≤ 80)
PUCCRT 1DP disease control rating, LV activity at 125.1 g/H ([2]; 1 day protectant): B (≤ 80)
PUCCRT 3DC disease control rating, LV activity at 125.1 g/H ([2]; 3 day curative): B (≤ 80)
